For two molecules, IC50 and GI50 results are on record in patent US20220402948A1, “EGFR INHIBITOR, COMPOSITION AND PREPARATION METHOD THEREFOR” (BETTA PHARMACEUTICALS CO., LTD., priority 2019, published 2022).

Each structure is given as a SMILES string.

Test [1] has as its target EGFRΔ19del/T790M/C797S (Homo sapiens, UniProt P00533, T790M/C797S, form not given). The test can be described thus: EGFR Δ19del/T790M/C797S kinase test (mobility variation analysis, Caliper EZ Reader). To be noted: kinase enzymatic activity, Table 1. The test is classed as biochemical. The procedure, abridged: (§1)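 Kinase pre-incubated with compound 10 minutes at room temperature, then ATP plus peptide substrate added; substrate conversion read by mobility shift after stop solution. Percent inhibition normalized to no-compound and no-enzyme controls; IC50 from variable-slope log(inhibitor) fit.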

Test [2] addresses EGFR WT (Homo sapiens, UniProt P00533). The test can be described thus: EGFR WT kinase test (mobility variation analysis, Caliper EZ Reader). The test is classed as biochemical. To be noted: kinase enzymatic activity, Table 1. The procedure, abridged: as §1
Test [3] has as its target IGF1R (Homo sapiens, UniProt P08069). The test can be described thus: IGF1R kinase test (mobility variation analysis, Caliper EZ Reader). The test is classed as biochemical. To be noted: kinase enzymatic activity, Table 1; read-out: EGFR IGF1R IC50. The procedure, abridged: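 Kinase preincubated 10 min at room temperature with compound (10-point 3-fold series, top 3000 nM), then ATP and substrate added and reacted at room temperature. Substrate conversion read by mobility-shift (Caliper EZ Reader); % inhibition vs no-enzyme and no-compound controls fitted to variable-slope curve for IC50.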

Test [4] concerns the target Ba/F3 cells with EGFR Δ19del/T790M/C797S mutation gene stably overexpressed (Homo sapiens, UniProt P00533, T790M/C797S, cells depend on it, form not given). In words: Ba/F3-Δ19del/T790M/C797S cell proliferation assay (CellTiter Glo, 72 hours). The test is classed as cell-based. To be noted: Table 2, read-out: EGFR Δ19del/T790M/C797S IC50. The procedure, abridged: (§2)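 Ba/F3 cells stably overexpressing wild-type EGFR or EGFR Δ19del/T790M/C797S were seeded at 2000 cells/well and incubated 72 h with compound. Viability was read by CellTiter-Glo luminescence, and IC50 came from a four-parameter logistic fit of signal against log concentration.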

The target of test [5] is Ba/F3-EGFR wild-type cell line (Homo sapiens, UniProt P00533). In words: Ba/F3-EGFR wild-type cell proliferation assay (CellTiter Glo, 72 hours). The test is classed as cell-based. To be noted: Table 2, read-out: EGFR WT IC50. The procedure, abridged: as §2
Sequence of Ba/F3-EGFR wild-type cell line (P00533 whole entry, change not shown): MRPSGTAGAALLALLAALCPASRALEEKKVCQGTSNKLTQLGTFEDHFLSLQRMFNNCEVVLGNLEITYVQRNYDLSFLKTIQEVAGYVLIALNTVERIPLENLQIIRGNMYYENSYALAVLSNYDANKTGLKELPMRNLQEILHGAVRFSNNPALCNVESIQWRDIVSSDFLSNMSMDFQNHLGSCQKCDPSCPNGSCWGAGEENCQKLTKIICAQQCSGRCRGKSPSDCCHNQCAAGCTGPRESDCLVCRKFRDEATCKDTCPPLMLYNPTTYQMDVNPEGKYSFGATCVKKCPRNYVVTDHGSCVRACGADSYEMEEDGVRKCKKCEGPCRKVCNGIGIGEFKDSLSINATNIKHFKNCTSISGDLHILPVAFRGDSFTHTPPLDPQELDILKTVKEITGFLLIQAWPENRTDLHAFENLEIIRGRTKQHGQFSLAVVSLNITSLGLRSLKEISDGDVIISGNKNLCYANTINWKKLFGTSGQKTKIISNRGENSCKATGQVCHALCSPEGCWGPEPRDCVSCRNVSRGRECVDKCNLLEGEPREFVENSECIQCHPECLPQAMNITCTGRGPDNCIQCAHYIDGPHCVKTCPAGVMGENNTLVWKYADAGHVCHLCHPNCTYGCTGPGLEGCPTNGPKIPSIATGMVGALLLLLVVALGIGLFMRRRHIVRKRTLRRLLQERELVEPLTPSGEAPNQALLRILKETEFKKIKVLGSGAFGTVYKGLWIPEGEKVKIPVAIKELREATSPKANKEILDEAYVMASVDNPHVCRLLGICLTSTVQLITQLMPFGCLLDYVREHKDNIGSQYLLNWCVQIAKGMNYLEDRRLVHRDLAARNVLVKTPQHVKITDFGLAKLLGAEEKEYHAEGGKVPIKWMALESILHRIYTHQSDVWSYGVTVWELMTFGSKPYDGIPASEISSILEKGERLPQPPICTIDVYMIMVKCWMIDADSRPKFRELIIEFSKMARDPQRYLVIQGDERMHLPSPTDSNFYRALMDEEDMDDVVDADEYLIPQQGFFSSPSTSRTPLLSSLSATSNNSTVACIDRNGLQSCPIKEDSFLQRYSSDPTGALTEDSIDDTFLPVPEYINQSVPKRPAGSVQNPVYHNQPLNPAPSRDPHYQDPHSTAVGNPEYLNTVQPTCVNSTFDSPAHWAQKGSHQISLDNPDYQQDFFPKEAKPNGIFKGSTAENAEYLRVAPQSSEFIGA
Test [6] concerns A431. The test can be described thus: A431 cell proliferation assay (CellTiter Glo, 72 hours). The test is classed as cell-based. To be noted: Homo sapiens, A-431, 72 h, cell proliferation, A431, 72 hours, Table 2; read-out: A431 IC50. The procedure, abridged: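 A431 cells (2000/well) exposed 72 h to compound at 1000 nM down to 0.2 nM in 3-fold steps, 0.1% DMSO (0.5% for some series). Viability by CellTiter-Glo luminescence; IC50 by four-parameter nonlinear regression.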

Sequence of EGFRΔ19del/T790M/C797S (P00533 with tags, fused parts or gaps DEL746-750/T790M/C797S, form open): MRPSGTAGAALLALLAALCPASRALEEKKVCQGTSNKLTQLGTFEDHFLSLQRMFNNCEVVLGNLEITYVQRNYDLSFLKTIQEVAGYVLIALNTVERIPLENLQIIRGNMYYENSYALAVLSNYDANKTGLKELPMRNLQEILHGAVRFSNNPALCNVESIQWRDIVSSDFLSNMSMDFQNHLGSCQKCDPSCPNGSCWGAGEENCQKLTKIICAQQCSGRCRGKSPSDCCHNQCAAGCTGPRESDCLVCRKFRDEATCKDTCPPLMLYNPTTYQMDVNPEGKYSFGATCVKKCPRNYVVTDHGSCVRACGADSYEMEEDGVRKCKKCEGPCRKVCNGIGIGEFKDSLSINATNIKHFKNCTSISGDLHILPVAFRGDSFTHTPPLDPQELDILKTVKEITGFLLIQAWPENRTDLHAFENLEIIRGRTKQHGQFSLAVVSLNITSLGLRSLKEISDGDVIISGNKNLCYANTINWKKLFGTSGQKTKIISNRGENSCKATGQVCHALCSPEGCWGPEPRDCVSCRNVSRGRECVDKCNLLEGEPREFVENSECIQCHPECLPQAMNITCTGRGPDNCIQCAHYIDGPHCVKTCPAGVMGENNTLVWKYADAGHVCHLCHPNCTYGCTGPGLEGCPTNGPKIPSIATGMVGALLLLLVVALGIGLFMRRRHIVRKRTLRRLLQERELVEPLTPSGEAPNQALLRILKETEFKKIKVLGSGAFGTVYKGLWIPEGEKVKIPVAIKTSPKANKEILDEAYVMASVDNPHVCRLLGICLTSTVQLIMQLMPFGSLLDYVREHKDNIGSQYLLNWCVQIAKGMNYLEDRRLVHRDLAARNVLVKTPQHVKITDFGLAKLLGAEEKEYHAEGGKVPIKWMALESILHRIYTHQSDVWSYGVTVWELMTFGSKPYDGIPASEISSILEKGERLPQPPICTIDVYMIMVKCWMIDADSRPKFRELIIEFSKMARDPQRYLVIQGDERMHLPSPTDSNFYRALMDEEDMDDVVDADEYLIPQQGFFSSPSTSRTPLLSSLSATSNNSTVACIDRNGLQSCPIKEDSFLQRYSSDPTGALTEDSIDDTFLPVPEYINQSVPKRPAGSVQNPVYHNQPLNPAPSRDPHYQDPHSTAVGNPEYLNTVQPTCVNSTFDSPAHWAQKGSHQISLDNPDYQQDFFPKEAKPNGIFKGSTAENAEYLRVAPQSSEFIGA
Sequence of Ba/F3 cells with EGFR Δ19del/T790M/C797S mutation gene stably overexpressed (P00533 with tags, fused parts or gaps DEL746-750/T790M/C797S, form open): as above
Sequence of EGFR WT (P00533 25-1210): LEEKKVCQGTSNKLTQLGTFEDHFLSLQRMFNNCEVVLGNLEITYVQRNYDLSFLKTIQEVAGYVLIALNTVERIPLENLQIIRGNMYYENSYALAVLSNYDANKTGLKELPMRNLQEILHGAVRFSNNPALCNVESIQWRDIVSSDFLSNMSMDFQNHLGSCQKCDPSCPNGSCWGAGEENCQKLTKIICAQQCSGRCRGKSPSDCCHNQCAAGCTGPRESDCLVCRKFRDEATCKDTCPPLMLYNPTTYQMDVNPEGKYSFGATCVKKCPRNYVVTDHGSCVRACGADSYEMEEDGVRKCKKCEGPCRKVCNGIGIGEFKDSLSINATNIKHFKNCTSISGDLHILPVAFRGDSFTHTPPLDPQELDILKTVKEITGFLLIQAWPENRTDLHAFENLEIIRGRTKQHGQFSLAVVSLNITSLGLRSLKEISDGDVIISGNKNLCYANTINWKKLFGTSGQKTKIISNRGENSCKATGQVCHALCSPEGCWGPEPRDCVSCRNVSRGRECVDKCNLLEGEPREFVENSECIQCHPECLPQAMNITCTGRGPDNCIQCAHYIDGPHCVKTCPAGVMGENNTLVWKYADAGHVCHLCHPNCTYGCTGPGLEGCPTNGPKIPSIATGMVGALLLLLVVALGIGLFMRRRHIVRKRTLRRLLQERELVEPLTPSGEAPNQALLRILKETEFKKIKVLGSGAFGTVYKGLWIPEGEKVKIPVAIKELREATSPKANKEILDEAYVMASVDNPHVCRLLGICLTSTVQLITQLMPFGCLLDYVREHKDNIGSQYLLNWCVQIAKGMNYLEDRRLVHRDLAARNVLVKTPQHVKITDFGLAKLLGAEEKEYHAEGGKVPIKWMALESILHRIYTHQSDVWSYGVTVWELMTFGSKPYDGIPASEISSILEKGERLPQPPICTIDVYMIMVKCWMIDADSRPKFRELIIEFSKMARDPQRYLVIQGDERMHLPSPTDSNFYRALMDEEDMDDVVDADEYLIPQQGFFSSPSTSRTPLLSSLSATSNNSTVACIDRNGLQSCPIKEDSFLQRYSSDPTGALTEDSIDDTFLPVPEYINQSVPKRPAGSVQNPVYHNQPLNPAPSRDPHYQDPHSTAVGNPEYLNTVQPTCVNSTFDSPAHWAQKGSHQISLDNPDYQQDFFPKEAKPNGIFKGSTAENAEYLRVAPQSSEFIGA

As to `COc1cc(Nc2ncc(Br)c(Nc3ccc(-c4cnn(C)n4)cc3P(C)(C)=O)n2)c(C)cc1N1CCC(N2CCOCC2)CC1` [Compound K-021, (2-((5-Bromo-2-((5-methoxy-2-methyl-4-(4-morpholinopiperidin-1-yl)phenyl)amino)pyrimidin-4-yl)amino)-5-(2-methyl-2H-1,2,3-triazol-4-yl)phenyl)dimethylphosphine oxide], the IC50 in test [1] amounted to 0.3 nM; in test [2], 8.4 nM; in test [3], 21.6 nM; in test [6] it was 3870 nM. Moreover, the GI50 in test [4] is 2.3 nM; in test [5], 84 nM.

For `C#Cc1cnc(-c2ccc(Nc3nc(Nc4cc(CC)c(N5CCC(N6CCN(C)CC6)CC5)cc4OC)ncc3Br)c(P(C)(C)=O)c2)cn1` [Compound K-010, (2-((5-Bromo-2-((5-ethyl-2-methoxy-4-(4-(4-methylpiperazin-1-yl)piperidin-1-yl)phenyl)amino)pyrimidin-4-yl)amino)-5-(5-ethynylpyrazin-2-yl)phenyl)dimethylphosphine oxide], the IC50 in test [1] turned out to be 0.4 nM; in test [2], 17 nM; in test [3], 46 nM; in test [6], 693 nM. The GI50 turned out to be 7.2 nM in test [4] and 52.8 nM in test [5].
